# Measured values from patent US20260297092A1, “PYRAZOLOPYRIMIDINE DERIVATIVES AS INHIBITORS OF NLRP3” (Takeda Pharmaceutical Company Limited, priority 2023, published 2026).
# Key:
# [1] = test system: NLRP3 inflammasome (IL-1β production in THP-1 cells); assay: IL-1β TR-FRET Assay (percentage of inhibition at 300 nM, 6 μM or 10 μM); format: cell-based, human; conditions: Homo sapiens, LPS priming, ATP activation; for inhibition at 0.3 µM: THP-1, 300 nM, read-out: IL-1β inhibitory rate at 300 nM (%); for inhibition at 6 µM: THP-1, 6 μM, read-out: IL-1β inhibitory rate at 6 μM (%)
# Method in brief: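 Percent inhibition of IL-1β used DMSO wells as 0% and 3 μM MCC-950 wells as full inhibition, with supernatant read by HTRF. Beforehand, IFN-γ-differentiated (25 ng/mL, 24 h), LPS-primed (50 ng/mL, 24 h) THP-1 cells received compound 30 min before inflammasome activation by 20 mM ATP for 2 h.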
# [2] = test system: TNF-α (NF-κB pathway, THP-1 cells); assay: TNF-α Assay (IC50); format: cell-based, human; conditions: Homo sapiens, 600 ng/mL LPS, 3 hours
# Procedure: TNF-α Assay (Reported as IC50)
# Monocytic THP-1 cells (ATCC: TIB-202) were maintained in accordance with the provider's instructions in RPMI media (Life Technologies, Cat #A10491-01); RPMI was supplemented with 10% heat inactivated fetal bovine serum (Hyclone Cat #SH30396.03). The cells were differentiated into macrophages by the addition of 25 ng/mL IFN-7 for 24 hours at 37° C./5% CO2. Media was exchanged with fresh media with no FBS. The cells were plated at 40,000 cells per well in 384-well flat-bottom cell culture plates (Costar 3764) containing compounds (added in 1:1000) in a 1:3.16 serial dilution series in DMSO and were incubated for 30 minutes at 37° C./5% CO2. The NF-κB pathway was activated with the addition of 600 ng/mL LPS and the cells were incubated for 3 hours at 37° C./5% CO2. At the end of the incubation period, supernatant ([…]) was removed, and TNF-alpha were monitored using an ELISA (Human TNF-α ELISA, R&D systems, Cat #DY210) according to the manufacturer's instructions. 100% inhibition is determined with positive control, TPCA-1.
# The IC50 values in the TNF-α assay were calculated from a plot of percentage of inhibition versus the inhibitor concentration by a logistics curve fit according to: Y=[Bottom+(Top−Bottom)]/(1+10^[(Log IC50−X)·Hill Slope], where Y was the […] at the inhibitor concentration, X, “Bottom” was the lowest inhibition value, i.e., 0%, “Top” was the maximum inhibition value, i.e., 100%, and the “Hill Slope” described the slope of the sigmoidal curve between the “Bottom” and “Top” values. The curve fitting was conducted with internally developed software.
SMILES,inhibition at 0.3 µM [1] [%],IC50 [2] [µM],inhibition at 6 µM [1] [%]
"Cc1ccc(-n2cc3c(=O)[nH]c(OCC(C)OCc4ccccc4)nc3n2)c(C)c1 (racemic) [Example 99, 6-[2-(benzyloxy)propoxy]-2-(2,4-dimethylphenyl)-2,5-dihydro-4H-pyrazolo[3,4-d]pyrimidin-4-one]",41,> 30,
"CCOc1nc2nn(-c3c(F)cc(OC(F)F)cc3Br)cc2c(=O)[nH]1 [Example 119, 2-[2-bromo-4-(difluoromethoxy)-6-fluorophenyl]-6-ethoxy-2,5-dihydro-4H-pyrazolo[3,4-d]pyrimidin-4-one]",101,> 30,
"CCOc1nc2nn(-c3c(F)cc(C)cc3CC)cc2c(=O)[nH]1 [Example 76, 6-ethoxy-2-(2-ethyl-6-fluoro-4-methylphenyl)-2,5-dihydro-4H-pyrazolo[3,4-d]pyrimidin-4-one]",94,> 30,
"CCOc1nc2nn(-c3ccc(C)cc3OC(F)F)cc2c(=O)[nH]1 [Example 83, 2-[2-(difluoromethoxy)-4-methylphenyl]-6-ethoxy-2,5-dihydro-4H-pyrazolo[3,4-d]pyrimidin-4-one]",99,> 30,
"CCOc1nc2nn(-c3c(C)cc(OC(F)F)cc3Br)cc2c(=O)[nH]1 [Example 142, 2-[2-bromo-4-(difluoromethoxy)-6-methylphenyl]-6-ethoxy-2,5-dihydro-4H-pyrazolo[3,4-d]pyrimidin-4-one]",93,> 30,
"CCOc1nc2nn(-c3c(C)cc(C4CC4)nc3C(F)(F)F)cc2c(=O)[nH]1 [Example 303, 2-[6-cyclopropyl-4-methyl-2-(trifluoromethyl)pyridin-3-yl]-6-ethoxy-2,5-dihydro-4H-pyrazolo[3,4-d]pyrimidin-4-one]",,> 30,100
"Cc1cc(C)c(-n2cc3c(=O)[nH]c(-c4ncccn4)nc3n2)c(O)c1 [Example 34, 2-(2-hydroxy-4,6-dimethylphenyl)-6-(pyrimidin-2-yl)-2,5-dihydro-4H-pyrazolo[3,4-d]pyrimidin-4-one]",98,> 30,
"COCCn1ccc(-c2nc3nn(-c4c(C)cc(C5CC5)cc4C)cc3c(=O)[nH]2)n1 [Example 278, 2-(4-cyclopropyl-2,6-dimethylphenyl)-6-[1-(2-methoxyethyl)-1H-pyrazol-3-yl]-2,5-dihydro-4H-pyrazolo[3,4-d]pyrimidin-4-one]",,> 30,95
"CCOc1nc2nn(-c3c(C)cc(C4CC4(F)F)cc3F)cc2c(=O)[nH]1 (racemic) [Example 112, 2-[4-(2,2-difluorocyclopropyl)-2-fluoro-6-methylphenyl]-6-ethoxy-2,5-dihydro-4H-pyrazolo[3,4-d]pyrimidin-4-one]",98,> 30,
"CCOc1nc2nn(-c3c(F)cc(C4CC4)cc3F)cc2c(=O)[nH]1 [Example 103, 2-(4-cyclopropyl-2,6-difluorophenyl)-6-ethoxy-2,5-dihydro-4H-pyrazolo[3,4-d]pyrimidin-4-one]",97,> 30,
"Cc1cc(C2CC2)cc(C)c1-n1cc2c(=O)[nH]c(COC(F)F)nc2n1 [Example 224, 2-(4-cyclopropyl-2,6-dimethylphenyl)-6-[(difluoromethoxy)methyl]-2,5-dihydro-4H-pyrazolo[3,4-d]pyrimidin-4-one]",104,> 30,
"Cc1cc(C)c(-n2cc3c(=O)[nH]c(-c4ccc(F)cn4)nc3n2)c(O)c1 [Example 13, 6-(5-fluoropyridin-2-yl)-2-(2-hydroxy-4,6-dimethylphenyl)-2,5-dihydro-4H-pyrazolo[3,4-d]pyrimidin-4-one]",99,> 30,
"Cc1cc(C2CC2)cc(C)c1-n1cc2c(=O)[nH]c(C3CC3)nc2n1 [Example 167, 6-cyclopropyl-2-(4-cyclopropyl-2,6-dimethylphenyl)-2,5-dihydro-4H-pyrazolo[3,4-d]pyrimidin-4-one]",98,> 30,
"Cc1cc(C)c(-n2cc3c(=O)[nH]c(-c4cccnn4)nc3n2)c(O)c1 [Example 30, 2-(2-hydroxy-4,6-dimethylphenyl)-6-(pyridazin-3-yl)-2,5-dihydro-4H-pyrazolo[3,4-d]pyrimidin-4-one]",100,> 30,
"Cc1cc(C)c(-n2cc3c(=O)[nH]c(C4CCCCO4)nc3n2)c(O)c1 (stereo not shown) [Example 18, 2-(2-hydroxy-4,6-dimethylphenyl)-6-(oxan-2-yl)-2,5-dihydro-4H-pyrazolo[3,4-d]pyrimidin-4-one]",99,> 30,
"CCc1cc(C2CC2)cc(C)c1-n1cc2c(=O)[nH]c(COC(F)F)nc2n1 [Example 291, 2-(4-cyclopropyl-2-ethyl-6-methylphenyl)-6-[(difluoromethoxy)methyl]-2,5-dihydro-4H-pyrazolo[3,4-d]pyrimidin-4-one]",,> 30,98
"COC1(c2nc3nn(-c4c(C)cc(C)cc4O)cc3c(=O)[nH]2)CCC1 [Example 35, 2-(2-hydroxy-4,6-dimethylphenyl)-6-(1-methoxycyclobutyl)-2,5-dihydro-4H-pyrazolo[3,4-d]pyrimidin-4-one]",96,> 30,
"Cc1cc(C2CC2)cc(C(F)F)c1-n1cc2c(=O)[nH]c(COC(F)F)nc2n1 [Example 283, 2-[4-cyclopropyl-2-(difluoromethyl)-6-methylphenyl]-6-[(difluoromethoxy)methyl]-2,5-dihydro-4H-pyrazolo[3,4-d]pyrimidin-4-one]",,> 30,99
"Cc1cc(C)c(-n2cc3c(=O)[nH]c(CCC(C)(F)F)nc3n2)c(O)c1 [Example 40, 6-(3,3-difluorobutyl)-2-(2-hydroxy-4,6-dimethylphenyl)-2,5-dihydro-4H-pyrazolo[3,4-d]pyrimidin-4-one]",100,> 30,
"CCOc1nc2nn(-c3ncc(Br)cc3C)cc2c(=O)[nH]1 [Example 150, 2-(5-bromo-3-methylpyridin-2-yl)-6-ethoxy-2,5-dihydro-4H-pyrazolo[3,4-d]pyrimidin-4-one]",70,> 30,
"CCOc1nc2nn(-c3c(C)cc(C4CC4)cc3C#N)cc2c(=O)[nH]1 [Example 179, 5-cyclo propyl-2-(6-ethoxy-4-oxo-4,5-dihydro-2H-pyrazolo[3,4-d]pyrimidin-2-yl)-3-methylbenzonitrile]",102,> 30,
"Cc1cc(C2CC2)cc(C)c1-n1cc2c(=O)[nH]c(CC#N)nc2n1 [Example 317, [2-(4-cyclopropyl-2,6-dimethylphenyl)-4-oxo-4,5-dihydro-2H-pyrazolo[3,4-d]pyrimidin-6-yl]acetonitrile]",,> 30,100
"CCOc1nc2nn(-c3c(F)cc(OC(F)F)cc3C(F)F)cc2c(=O)[nH]1 [Example 163, 2-[4-(difluoromethoxy)-2-(difluoromethyl)-6-fluorophenyl]-6-ethoxy-2,5-dihydro-4H-pyrazolo[3,4-d]pyrimidin-4-one]",97,> 30,
